Test results from US20240148821A1, “PHARMACEUTICAL USE OF CYCLIC PEPTIDE COMPOUND” (CHUGAI SEIYAKU KABUSHIKI KAISHA, priority 2021, published 2024).
Numbered stars: 1 amine (or outer) side, 2 acyl side, 3 side chain; on linkers, the order of the positions; unused ones are H or OH. Bridge positions count the residues as written; N and C are the ends. Square brackets hold non-standard residues; d marks the D form. Peptide text beside a SMILES is read from it. * marks the point of attachment. hPhe(3-Cl-4-CF3) = N[C@@H](CCc1ccc(C(F)(F)F)c(Cl)c1)C(=O)O; NMePhe(4-Me) = CN[C@@H](Cc1ccc(C)cc1)C(=O)O; NMedβ3hAla = C[C@H](CC(=O)[*:2])N(C)[*:1]; NMeNva(5,5-F2) = CN[C@@H](CCC(F)F)C(=O)O; NMeGly(cPent) = CN[C@H](C(=O)O)C1CCCC1; NMe3Pal = CN[C@@H](Cc1cccnc1)C(=O)O; NMeCha = CN[C@@H](CC1CCCCC1)C(=O)O; NMehLeu = CN[C@@H](CCC(C)C)C(=O)O; NMeChg = CN[C@H](C(=O)O)C1CCCCC1; NMeF = CN[C@@H](Cc1ccccc1)C(=O)O; NMeI = CC[C@H](C)[C@H](NC)C(=O)O; NMeD = CN[C@@H](CC(=O)O)C(=O)O; NMeL = CN[C@@H](CC(C)C)C(=O)O; NMeV = CN[C@H](C(=O)O)C(C)C; d(β3hA) = C[C@@H](N)CC(=O)O; NMeAbu = CC[C@H](NC)C(=O)O; NMeS = CN[C@@H](CO)C(=O)O; Ac6c = NC1(C(=O)O)CCCCC1; Morpholide = C1CN(*)CCO1; NMeA = CN[C@@H](C)C(=O)O; Piperidide = C1CCN(*)CC1; dNMeA = CN[C@H](C)C(=O)O; Ac5c = NC1(C(=O)O)CCCC1; Aze = O=C(O)[C@@H]1CCN1; Abu = CC[C@H](N)C(=O)O; Sar = CNCC(=O)O

Experiments:
[1] = system: Human pancreatic cancer cell line AsPC-1 (G12D mutation Kras); assay: AsPC-1 cell growth inhibition (AsPC-1 CGI); format: cell-based; settings: read-out: AsPC-1 cell growth inhibition, 50% growth inhibitory concentration (IC50 value); 96 hours, CellTiter-Glo, values classified in ranges
Method: Test compounds were serially dilated with dimethyl sulfoxide, and 200 nL was then dispensed to a U-bottom 96-well plate using Labcyte Echo. […] The cell suspension was dispensed to a. plate containing a test compound at 100 μL per well and incubated at 37° C. in a 5% carbon dioxide gas incubator. 96 hours later, 80 μL of CellTiter-Glo (Promega) was added to each well and fluorescence was measured.

[2] = molecular target: protein-protein interaction between Kras and SOS1 (biotin-tagged human Kras loaded with GDP, His-tagged human SOS1) (Homo sapiens (Human), UniProt P01116, G12D); assay: Protein-protein interaction inhibition between Kras and SOS1 (KrasG12D-SOS PPI) using AlphaScreen; format: biochemical; settings: AlphaScreen; biotin-tagged human Kras loaded with GDP, His-tagged human SOS1; read-out: KRAS G12D-SOS PPI IC50;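 note: kras produced in E. coli, Ni-coupled donor beads and streptavidin acceptor beads, excitation 680 nm with emission detected at 520–620 nm via singlet oxygen transfer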

| SMILES | IC50 [1] [nM] | IC50 [2] [nM] |
| --- | --- | --- |
| CC[C@H](C)[C@@H]1NC(=O)[C@H](CC(C)C)N(C)C(=O)C[C@@H](C(=O)N2CCCCC2)N(C)C(=O)[C@H](C(C)C)N(C)C(=O)C2(CCCCC2)NC(=O)[C@@H]2CCCN2C(=O)[C@H](CCc2ccc(C(F)(F)F)c(Cl)c2)NC(=O)CN(C)C(=O)[C@H](CC2CCCCC2)N(C)C(=O)[C@@H]2CCN2C(=O)[C@H](C)N(C)C1=O [Compound 1708] ([NMeL]I[NMeA][Aze][NMeCha][Sar][hPhe(3-Cl-4-CF3)]P[Ac6c][NMeV][NMeD]-Piperidide; lactam N-11) | > 500 | 10 |
| CC[C@H](C)[C@@H]1NC(=O)[C@H](C)N(C)C(=O)C[C@@H](C(=O)N2CCOCC2)N(C)C(=O)[C@H](C2CCCCC2)N(C)C(=O)C2(CCCC2)NC(=O)[C@H](Cc2cccnc2)N(C)C(=O)[C@H](CCc2ccc(C(F)(F)F)c(Cl)c2)NC(=O)CN(C)C(=O)[C@H](CC2CCCCC2)N(C)C(=O)CN(C)C(=O)CN(C)C1=O [Compound 1718] ([NMeA]I[Sar][Sar][NMeCha][Sar][hPhe(3-Cl-4-CF3)][NMe3Pal][Ac5c][NMeChg][NMeD]-Morpholide; lactam N-11) | > 500 | 0.8 |
| CC[C@H](C)[C@@H]1NC(=O)[C@H](CC(C)C)N(C)C(=O)C[C@@H](C(=O)N2CCCCC2)N(C)C(=O)[C@H](C(C)C)N(C)C(=O)C2(CCCC2)NC(=O)[C@@H]2CCCN2C(=O)[C@H](CCc2ccc(C(F)(F)F)c(Cl)c2)NC(=O)CN(C)C(=O)[C@H](CO)N(C)C(=O)[C@@H]2CCN2C(=O)[C@H](C)N(C)C1=O [Compound 1721] ([NMeL]I[NMeA][Aze][NMeS][Sar][hPhe(3-Cl-4-CF3)]P[Ac5c][NMeV][NMeD]-Piperidide; lactam N-11) | > 500 | 22 |
| CC[C@H](C)[C@@H]1NC(=O)[C@H](C)N(C)C(=O)C[C@@H](C(=O)N2CCCCC2)N(C)C(=O)[C@H](C(C)C)N(C)C(=O)C2(CCCC2)NC(=O)[C@@H]2CCCN2C(=O)[C@H](CCc2ccc(C(F)(F)F)c(Cl)c2)NC(=O)[C@@H](C)N(C)C(=O)[C@H](Cc2ccccc2)N(C)C(=O)[C@@H]2CCN2C(=O)[C@H](C)N(C)C1=O [Compound 1724] ([NMeA]I[NMeA][Aze][NMeF][dNMeA][hPhe(3-Cl-4-CF3)]P[Ac5c][NMeV][NMeD]-Piperidide; lactam N-11) | > 500 | 16 |
| CC[C@H](C)[C@@H]1NC(=O)[C@H](CC(C)C)N(C)C(=O)C[C@@H](C)N(C)C(=O)[C@H]([C@@H](C)CC)N(C)C(=O)C2(CCCC2)NC(=O)[C@@H]2CCCN2C(=O)[C@H](CCc2ccc(C(F)(F)F)c(Cl)c2)NC(=O)CN(C)C(=O)[C@H](CC2CCCCC2)N(C)C(=O)[C@@H]2CCN2C(=O)[C@H](C)N(C)C1=O [Compound 1733] (cyclo([Ac5c][NMeI][NMedβ3hAla][NMeL]I[NMeA][Aze][NMeCha][Sar][hPhe(3-Cl-4-CF3)]P)) | > 500 | 130 |
| CC[C@H](C)[C@@H]1NC(=O)[C@H](CC(C)C)N(C)C(=O)C[C@@H](C(=O)N2CCOCC2)N(C)C(=O)[C@H](C2CCCCC2)N(C)C(=O)C2(CCCC2)NC(=O)[C@H](Cc2cccnc2)N(C)C(=O)[C@H](CCc2ccc(C(F)(F)F)c(Cl)c2)NC(=O)CN(C)C(=O)[C@H](CC2CCCCC2)N(C)C(=O)CN(C)C(=O)CN(C)C1=O [Compound 1745] ([NMeL]I[Sar][Sar][NMeCha][Sar][hPhe(3-Cl-4-CF3)][NMe3Pal][Ac5c][NMeChg][NMeD]-Morpholide; lactam N-11) | > 500 | 1.3 |
| CC[C@H](C)[C@@H]1NC(=O)[C@H](CC(C)C)N(C)C(=O)C[C@@H](C)NC(=O)[C@H](C2CCCCC2)N(C)C(=O)C2(CCCC2)NC(=O)[C@@H]2CCCN2C(=O)[C@H](CCc2ccc(C(F)(F)F)c(Cl)c2)NC(=O)CN(C)C(=O)[C@H](Cc2ccc(C)cc2)N(C)C(=O)[C@@H]2CCN2C(=O)[C@H](C)N(C)C1=O [Compound 1747] (cyclo([Ac5c][NMeChg][d(β3hA)][NMeL]I[NMeA][Aze][NMePhe(4-Me)][Sar][hPhe(3-Cl-4-CF3)]P)) | > 500 | 16 |
| CC[C@H](C)[C@@H]1NC(=O)[C@H](CC(C)C)N(C)C(=O)C[C@@H](C)N(C)C(=O)[C@H](C2CCCC2)N(C)C(=O)C2(CCCC2)NC(=O)[C@@H]2CCCN2C(=O)[C@H](CCc2ccc(C(F)(F)F)c(Cl)c2)NC(=O)CN(C)C(=O)[C@H](Cc2ccc(C)cc2)N(C)C(=O)[C@@H]2CCN2C(=O)[C@H](C)N(C)C1=O [Compound 1750] (cyclo([Ac5c][NMeGly(cPent)][NMedβ3hAla][NMeL]I[NMeA][Aze][NMePhe(4-Me)][Sar][hPhe(3-Cl-4-CF3)]P)) | ≤ 20 | 1.3 |
| CC[C@H](C)[C@@H]1NC(=O)[C@H](CC(C)C)N(C)C(=O)C[C@@H](C(=O)N2CCCCC2)N(C)C(=O)[C@H](C(C)C)N(C)C(=O)C2(CCCC2)NC(=O)[C@@H]2CCCN2C(=O)[C@H](CCc2ccc(C(F)(F)F)c(Cl)c2)NC(=O)CN(C)C(=O)[C@H](CC)N(C)C(=O)[C@@H]2CCN2C(=O)[C@H](C)N(C)C1=O [Compound 1752] ([NMeL]I[NMeA][Aze][NMeAbu][Sar][hPhe(3-Cl-4-CF3)]P[Ac5c][NMeV][NMeD]-Piperidide; lactam N-11) | > 500 | 17 |
| CC[C@@H]1NC(=O)[C@H](CC(C)C)N(C)C(=O)C[C@@H](C(=O)N2CCCCC2)N(C)C(=O)[C@H](C(C)C)N(C)C(=O)C2(CCCC2)NC(=O)[C@@H]2CCCN2C(=O)[C@H](CCc2ccc(C(F)(F)F)c(Cl)c2)NC(=O)CN(C)C(=O)[C@H](CC2CCCCC2)N(C)C(=O)[C@@H]2CCN2C(=O)[C@H](C)N(C)C1=O [Compound 1760] ([NMeL][Abu][NMeA][Aze][NMeCha][Sar][hPhe(3-Cl-4-CF3)]P[Ac5c][NMeV][NMeD]-Piperidide; lactam N-11) | > 500 | 32 |
| CC[C@H](C)[C@@H]1NC(=O)[C@H](CC(C)C)N(C)C(=O)C[C@@H](C(=O)N2CCCCC2)N(C)C(=O)[C@H](C(C)C)N(C)C(=O)C2(CCCC2)NC(=O)[C@@H]2CCCN2C(=O)[C@H](CCc2ccc(C(F)(F)F)c(Cl)c2)NC(=O)CN(C)C(=O)[C@H](CCC(F)F)N(C)C(=O)[C@@H]2CCN2C(=O)[C@H](C)N(C)C1=O [Compound 1769] ([NMeL]I[NMeA][Aze][NMeNva(5,5-F2)][Sar][hPhe(3-Cl-4-CF3)]P[Ac5c][NMeV][NMeD]-Piperidide; lactam N-11) | > 500 | 11 |
| CC[C@H](C)[C@@H]1NC(=O)[C@H](CC(C)C)N(C)C(=O)C[C@@H](C(=O)N2CCCCC2)N(C)C(=O)[C@H](C2CCCC2)N(C)C(=O)C2(CCCC2)NC(=O)[C@@H]2CCCN2C(=O)[C@H](CCc2ccc(C(F)(F)F)c(Cl)c2)NC(=O)CN(C)C(=O)[C@H](Cc2ccc(C)cc2)N(C)C(=O)[C@@H]2CCN2C(=O)[C@H](C)N(C)C1=O [Compound 1772] ([NMeL]I[NMeA][Aze][NMePhe(4-Me)][Sar][hPhe(3-Cl-4-CF3)]P[Ac5c][NMeGly(cPent)][NMeD]-Piperidide; lactam N-11) | ≤ 20 | 0.75 |
| CC[C@H](C)[C@@H]1NC(=O)[C@H](CC(C)C)N(C)C(=O)C[C@@H](C(=O)N2CCCCC2)N(C)C(=O)[C@H](CCC(C)C)N(C)C(=O)C2(CCCC2)NC(=O)[C@@H]2CCCN2C(=O)[C@H](CCc2ccc(C(F)(F)F)c(Cl)c2)NC(=O)CN(C)C(=O)[C@H](CC2CCCCC2)N(C)C(=O)[C@@H]2CCN2C(=O)[C@H](C)N(C)C1=O [Compound 1776] ([NMeL]I[NMeA][Aze][NMeCha][Sar][hPhe(3-Cl-4-CF3)]P[Ac5c][NMehLeu][NMeD]-Piperidide; lactam N-11) | > 500 | 24 |
| CC[C@H](C)[C@@H]1NC(=O)[C@H](CC(C)C)N(C)C(=O)C[C@@H](C(=O)N(C)C)N(C)C(=O)[C@H](C2CCCC2)N(C)C(=O)C2(CCCC2)NC(=O)[C@@H]2CCCN2C(=O)[C@H](CCc2ccc(C(F)(F)F)c(Cl)c2)NC(=O)CN(C)C(=O)[C@H](CC2CCCCC2)N(C)C(=O)[C@@H]2CCN2C(=O)[C@H](C)N(C)C1=O [Compound 1777] ([NMeL]I[NMeA][Aze][NMeCha][Sar][hPhe(3-Cl-4-CF3)]P[Ac5c][NMeGly(cPent)][NMeD]-NMe2; lactam N-11) | ≤ 20 | 0.63 |
| CC(C)C[C@H]1C(=O)N[C@@H](C)C(=O)N(C)[C@@H](C)C(=O)N2CC[C@H]2C(=O)N(C)[C@@H](CC2CCCCC2)C(=O)N(C)CC(=O)N[C@@H](CCc2ccc(C(F)(F)F)c(Cl)c2)C(=O)N2CCC[C@H]2C(=O)NC2(CCCC2)C(=O)N(C)[C@@H](C(C)C)C(=O)N(C)[C@H](C(=O)N2CCCCC2)CC(=O)N1C [Compound 1780] ([NMeL]A[NMeA][Aze][NMeCha][Sar][hPhe(3-Cl-4-CF3)]P[Ac5c][NMeV][NMeD]-Piperidide; lactam N-11) | > 500 | 120 |
| CC[C@H](C)[C@@H]1NC(=O)[C@H](CC(C)C)N(C)C(=O)C[C@@H](C(=O)N2CCCCC2)N(C)C(=O)[C@H](C2CCCC2)N(C)C(=O)C2(CCCC2)NC(=O)[C@@H]2CCCN2C(=O)[C@H](CCc2ccc(C(F)(F)F)c(Cl)c2)NC(=O)CN(C)C(=O)[C@H](CC2CCCCC2)N(C)C(=O)[C@@H]2CCN2C(=O)[C@H](C)N(C)C1=O [Compound 1787] ([NMeL]I[NMeA][Aze][NMeCha][Sar][hPhe(3-Cl-4-CF3)]P[Ac5c][NMeGly(cPent)][NMeD]-Piperidide; lactam N-11) | ≤ 20 | 1.1 |
| CC[C@H](C)[C@@H]1NC(=O)[C@H](CC(C)C)N(C)C(=O)C[C@@H](C)N(C)C(=O)[C@H]([C@@H](C)CC)N(C)C(=O)C2(CCCC2)NC(=O)[C@@H]2CCCN2C(=O)[C@H](CCc2ccc(C(F)(F)F)c(Cl)c2)NC(=O)CN(C)C(=O)[C@H](Cc2ccc(C)cc2)N(C)C(=O)[C@@H]2CCN2C(=O)[C@H](C)N(C)C1=O [Compound 1793] (cyclo([Ac5c][NMeI][NMedβ3hAla][NMeL]I[NMeA][Aze][NMePhe(4-Me)][Sar][hPhe(3-Cl-4-CF3)]P)) | ≤ 20 | 1.9 |
